The values below come from the supplement of paper PMC8498969.

Assay [1] has as its system HEK293. In words: IC50 for inhibition of ZIKV NS1 production. As for the experimental part: (§1)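 HEK293 cells in 1536-well plates were pre-treated with compound for 1 h, infected with ZIKV (MOI 1) for 24 h, and NS1 antigen (intra- plus extracellular) was measured by TR-FRET. Confirmation used 11-point 1:3 dilutions, and IC50 and maximal inhibition were fitted in GraphPad Prism.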

Assay [2] deals with HEK293. In words: maximal inhibition of ZIKV NS1 production (% inhibition); higher = stronger antiviral effect. As for the experimental part: as §1
For assay [3], the system named is HEK293. As to the kind of experiment: cytotoxicity IC50 (ATP content, uninfected cells); higher = less cytotoxic. The conditions noted are these: infection: none.

In general, IC50 refers to the midpoint of a concentration-inhibition curve. Turning to `COc1c(OCCCN2CCOCC2)ccc2c3n(c(=NC(=O)c4cnc(N)nc4)nc12)CCN3`, the IC50 with HEK293 [1] is 2.1 µM. This compound also had a maximal inhibition in the assay on HEK293 [2] of 71. In addition, in the assay on HEK293 [3], the “cytotoxicity IC50” value stood at 22 µM.

In turn, `CCc1c2c(nc3ccc(O)cc13)-c1cc3c(c(=O)n1C2)COC(=O)[C@]3(O)CC` had an IC50 in the assay with HEK293 [1] of 0.011 µM. Further, in the assay on HEK293 [2], the maximal inhibition is 61. Further, the “cytotoxicity IC50” value in the assay with HEK293 [3] was greater than 100 µM.

For `CC(C)(O)Cn1c(NC(=O)c2ccc(-c3cn[nH]c3)s2)nc2cc(CN3CCOCC3)ccc21`, the IC50 in the assay with HEK293 [1] turned out to be 8.3 µM. The maximal inhibition in the assay with HEK293 [2] was 103. Besides, the “cytotoxicity IC50” value with HEK293 [3] is greater than 100 µM.

The compound `COc1cc([C@@H]2c3cc4c(cc3[C@@H](O[C@@H]3O[C@@H]5CO[C@@H](C)O[C@H]5[C@H](O)[C@H]3O)[C@H]3COC(=O)[C@H]23)OCO4)cc(OC)c1O` had an IC50 in the assay with HEK293 [1] of 2.2 µM. This compound also showed a maximal inhibition in the assay on HEK293 [2] of 102. Moreover, in the assay with HEK293 [3], the “cytotoxicity IC50” value is greater than 100 µM.

Compound `CC(C)[C@]12O[C@H]1[C@@H]1O[C@]13[C@]1(O[C@H]1C[C@H]1C4=C(CC[C@@]13C)C(=O)OC4)[C@@H]2O` came in with an IC50 in the assay with HEK293 [1] of 0.47 µM. The maximal inhibition in the assay with HEK293 [2] stood at 73. Further, the “cytotoxicity IC50” value in the assay with HEK293 [3] was greater than 100 µM.

In the assay with HEK293 [1], `c1ccc2c(-c3cnn4cc(-c5ccc(N6CCNCC6)cc5)cnc34)ccnc2c1` showed an IC50 of 6.1 µM. The compound further returned a maximal inhibition in the assay with HEK293 [2] of 106. Besides, the “cytotoxicity IC50” value in the assay on HEK293 [3] amounted to 80 µM.

Take `c1ccc2c(CCNc3ccc(Nc4ccncc4)cc3)c[nH]c2c1`: in the assay on HEK293 [1], the IC50 was determined as 23 µM. In the assay with HEK293 [2], this compound showed a maximal inhibition of 51. The “cytotoxicity IC50” value with HEK293 [3] is greater than 100 µM.

In the assay on HEK293 [1], `O[C@@H](CNC[C@H](O)[C@H]1CCc2cc(F)ccc2O1)[C@@H]1CCc2cc(F)ccc2O1` had an IC50 of 24 µM. This compound displayed a maximal inhibition in the assay on HEK293 [2] of 94. Moreover, the “cytotoxicity IC50” value in the assay with HEK293 [3] is greater than 100 µM.

Regarding `Cc1cc2c(F)c(Oc3ncnn4cc(OC[C@@H](C)O)c(C)c34)ccc2[nH]1`, in the assay on HEK293 [1], the IC50 came out at 2.9 µM. In addition, the maximal inhibition in the assay with HEK293 [2] turned out to be 104. For the same compound, the “cytotoxicity IC50” value with HEK293 [3] was found to be 1.4 µM.

The compound `Cc1ccccc1C(=O)c1ccc(Nc2ccc(Br)cc2N)cc1Cl` yielded an IC50 with HEK293 [1] of 40 µM. Besides, in the assay with HEK293 [2], the maximal inhibition amounted to 68. For the same compound, in the assay on HEK293 [3], the “cytotoxicity IC50” value was greater than 100 µM.

As to `CCc1c2c(nc3ccc(OC(=O)N4CCC(N5CCCCC5)CC4)cc13)-c1cc3c(c(=O)n1C2)COC(=O)[C@]3(O)CC`, the IC50 in the assay on HEK293 [1] is 1.6 µM. The compound further had a maximal inhibition with HEK293 [2] of 97. The “cytotoxicity IC50” value with HEK293 [3] is greater than 100 µM.

Compound `Cn1c(CCCC(=O)O)nc2cc(N(CCCl)CCCl)ccc21` came in with an IC50 in the assay on HEK293 [1] of 50 µM. Besides, the maximal inhibition in the assay on HEK293 [2] was 92. The “cytotoxicity IC50” value in the assay on HEK293 [3] was greater than 100 µM.

In the case of `CC[n+]1c(/C=C/C=C2/N(C)c3ccccc3C2(C)C)sc2ccccc21`, the IC50 in the assay on HEK293 [1] came out at 4 µM. This compound also displayed a maximal inhibition in the assay on HEK293 [2] of 97. For the same compound, the “cytotoxicity IC50” value in the assay with HEK293 [3] amounted to 0.26 µM.

Compound `CC1=C(CO)C(=O)O[C@@H]([C@@H](C)[C@H]2CC[C@H]3[C@@H]4C[C@H]5O[C@]56[C@@H](O)C=CC(=O)[C@]6(C)[C@H]4CC[C@]23C)C1` came in with an IC50 with HEK293 [1] of 2.8 µM. This compound also registered a maximal inhibition with HEK293 [2] of 102. For the same compound, the “cytotoxicity IC50” value with HEK293 [3] turned out to be 2.8 µM.

With `Cc1cc(C2CCCCC2)n(O)c(=O)c1`, in the assay with HEK293 [1], the IC50 was found to be 14 µM. The same compound registered a maximal inhibition in the assay on HEK293 [2] of 100. Moreover, in the assay with HEK293 [3], the “cytotoxicity IC50” value came out at 20 µM.

In the assay on HEK293 [1], `O=c1[nH]nc(Sc2ncc([N+](=O)[O-])s2)n1-c1ccc2c(c1)OCCO2` returned an IC50 of 8 µM. In the assay with HEK293 [2], the maximal inhibition is 97. Also, the “cytotoxicity IC50” value in the assay on HEK293 [3] amounted to 12 µM.

`COc1cc(NCc2ccc3nc(N)nc(N)c3c2C)cc(OC)c1OC`: the IC50 with HEK293 [1] came out at 1.6 µM. The compound further registered a maximal inhibition in the assay with HEK293 [2] of 99. Moreover, in the assay with HEK293 [3], the “cytotoxicity IC50” value amounted to 2.2 µM.

`Cn1cc(-c2[nH]c3cc(NC(=O)[C@H](N)C4CCCCC4)cc4c3c2C=NNC4=O)cn1` yielded an IC50 in the assay on HEK293 [1] of 0.49 µM. For the same compound, the maximal inhibition with HEK293 [2] was 104. Besides, the “cytotoxicity IC50” value with HEK293 [3] is greater than 100 µM.

In turn, `O=C1NC(=O)[C@@H](c2cn3c4c(cccc24)CCC3)[C@@H]1c1c[nH]c2ccccc12` gave an IC50 with HEK293 [1] of 18 µM. The maximal inhibition with HEK293 [2] stood at 86. Further, the “cytotoxicity IC50” value in the assay on HEK293 [3] is 1.6 µM.

For `COc1cccc2c1C(=O)c1c(O)c3c(c(O)c1C2=O)C[C@@](O)(C(=O)CO)C[C@@H]3O[C@H]1C[C@H](N)[C@H](O[C@@H]2CCCCO2)[C@H](C)O1`, the half-inhibitory concentration (IC50) with HEK293 [1] is 5.6 µM. For the same compound, the maximal inhibition in the assay with HEK293 [2] was found to be 75. Further, the “cytotoxicity IC50” value in the assay with HEK293 [3] is greater than 100 µM.

Take `O=C1NC(=O)/C(=C/c2ccc3nccc(-c4ccncc4)c3c2)S1`: the IC50 in the assay with HEK293 [1] came to 1.9 µM. Also, the maximal inhibition in the assay with HEK293 [2] was 82. The “cytotoxicity IC50” value in the assay on HEK293 [3] is 1.4 µM.

As for `CC(NCc1ccc2c(c1)nc(NC(=O)c1ccc(-c3cn[nH]c3)s1)n2CC(C)(C)O)C(C)(C)C` (stereo unspecified), the IC50 in the assay with HEK293 [1] is 9.6 µM. The compound further had a maximal inhibition in the assay with HEK293 [2] of 101. In the assay on HEK293 [3], the “cytotoxicity IC50” value is greater than 100 µM.
